According to patent US6534518B1, “Polysubstituted 6-phenylphenanthridines with PDE-IV inhibiting activity” (Altana Pharma AG, priority 1999, dated 2003):

System: PDE4
Assay: Inhibition of PDE4 activity (method of Bauer and Schwabe, microtiter plates)
Type: biochemical
Details: inhibitory concentration as −log IC50 (mol/l)
Experimental: The activity test was carried out according to the method of Bauer and Schwabe, which was adapted to microtiter plates (Naunyn-Schmiedeberg's Arch. Pharmacol. 1980, 311, 193-198). The PDE reaction takes place in the first step here. In a second step, the resulting 5′-nucleotide is cleaved by a 5′-nucloetidase of the snake venom of Crotalus atrox to the uncharged nucleoside. In the third step, the nucleoside is separated from the remaining charged substrate on ion-exchange columns. The columns are eluted directly into minivials, into which 2 ml of scintillator fluid are additionally added for counting, using 2 ml of 30 mM ammonium formate (pH 6.0).
The inhibitory values determined for the compounds according to the invention [inhibitory concentration as −log IC50 (mol/l)] follow from the following Table A, in which the numbers of the compounds correspond to the numbers of the examples.

Compound	−log IC50 (inhibition of the PDE4 activity)
COc1cc2c(cc1OC)[C@@H]1CCCC[C@@H]1N=C2c1cc(OC)c(OC)c(OC)c1 [Compound 4, (−)-cis-8,9-Dimethoxy-6-(3,4,5-trimethoxyphenyl)-1,2,3,4,4a,10b-hexahydrophenanthridine]	6.96
COc1cc2c(cc1OC)[C@@H]1CCCC[C@@H]1N=C2c1cc(OC)c(OC)c(S(C)(=O)=O)c1 [Compound 5, (−)-cis-6-(3-Methanesulfonyl-4,5-dimethoxyphenyl)-8,9-dimethoxy-1,2,3,4,4a,10b-hexahydrophenanthridine]	7.57
COc1cc2c(cc1OC)[C@@H]1CCCC[C@@H]1N=C2c1cc([N+](=O)[O-])cc([N+](=O)[O-])c1 [Compound 3, (−)-cis-8,9-Dimethoxy-6-(3,5-dinitrophenyl)-1,2,3,4,4a,10b-hexahydrophenanthridine]	6.56
COc1cc2c(cc1OC)[C@@H]1CCCC[C@@H]1N=C2c1ccc([N+](=O)[O-])c([N+](=O)[O-])c1 [Compound 1, (−)-cis-8,9-Dimethoxy-6-(3,4-dinitrophenyl)-1,2,3,4,4a,10b-hexahydrophenanthridine]	7.26
CCOc1cc(C2=N[C@H]3CCCC[C@H]3c3cc(OC)c(OC)cc32)cc(OCC)c1OCC [Compound 6, (−)-cis-8,9-Dimethoxy-6-(3,4,5-triethoxyphenyl)-1,2,3,4,4a,10b-hexahydrophenanthridine]	7.81
COc1cc2c(cc1OC)C1CCCCC1N=C2c1cc(C(F)(F)F)cc(C(F)(F)F)c1 (single isomer, unassigned; (-)) [Compound 2, (−)-cis-6-(Bis-3,5-trifluoromethylphenyl)-8,9-dimethoxy-1,2,3,4,4a,10b-hexahydrophenanthridine]	6.93

System: not given
Assay: not given
Details: not given

Compound	melting point [°C]
COc1cc2c(cc1OC)[C@@H]1CCCC[C@@H]1N=C2c1ccc([N+](=O)[O-])c([N+](=O)[O-])c1 [Compound 1, (−)-cis-8,9-Dimethoxy-6-(3,4-dinitrophenyl)-1,2,3,4,4a,10b-hexahydrophenanthridine]	162 to 165
